In brackets after ≈: the same amount, converted by molar mass.
Key:
Escherichia coli [1] = test: Antimicrobial activity against Escherichia coli 08-843TC1 transconjugant expressing IncI1 plasmid-encoded beta lactamase CTX-M-1 by Etest; type: functional
Escherichia coli [2] = test: Antimicrobial activity against Escherichia coli 07-819TC1 transconjugant expressing IncI1 plasmid-encoded beta lactamase CTX-M-1 by Etest; type: functional
Salmonella typhimurium [3] = test: Antimicrobial activity against Salmonella Typhimurium 08-843 by Etest; type: functional, Salmonella enterica subsp. enterica serovar Typhimurium; details: Salmonella enterica
[4] = Antimicrobial activity against Salmonella Newport 03-8748 by Etest; type: functional, Salmonella enterica subsp. enterica serovar Newport; details: Salmonella enterica
Escherichia coli [5] = test: Antimicrobial activity against Escherichia coli 08-1537TC1 transconjugant expressing IncI1 plasmid-encoded beta lactamase CTX-M-1 by Etest
Salmonella typhimurium [6] = test: Antimicrobial activity against Salmonella Typhimurium 08-2211 by Etest; type: functional, Salmonella enterica subsp. enterica serovar Typhimurium; details: Salmonella enterica
Escherichia coli [7] = test: Antimicrobial activity against Escherichia coli 06CEB6542SALTC1 transconjugant expressing IncI1 plasmid-encoded beta lactamase CTX-M-1 by Etest; type: functional
Salmonella typhimurium [8] = test: Antimicrobial activity against Salmonella Typhimurium 06-6550 by Etest; type: functional, Salmonella enterica subsp. enterica serovar Typhimurium; details: Salmonella enterica
[9] = Antimicrobial activity against Salmonella 4,5,12:i:- 08-2712 by Etest; type: functional, Salmonella enterica subsp. enterica serovar 4,[5],12:i:-; details: Salmonella enterica
Escherichia coli [10] = test: Antimicrobial activity against Escherichia coli 06-6550TC1 transconjugant expressing IncI1 plasmid-encoded beta lactamase CTX-M-1 by Etest; type: functional
[11] = Antimicrobial activity against Salmonella London 07-819 by Etest; type: functional, Salmonella enterica subsp. enterica serovar London; details: Salmonella enterica
Salmonella typhimurium [12] = test: Antimicrobial activity against Salmonella Typhimurium 08-1537 by Etest; type: functional, Salmonella enterica subsp. enterica serovar Typhimurium; details: Salmonella enterica
Salmonella typhimurium [13] = test: Antimicrobial activity against Salmonella Typhimurium 08-1745 by Etest; type: functional, Salmonella enterica subsp. enterica serovar Typhimurium; details: Salmonella enterica
Escherichia coli [14] = test: Antimicrobial activity against Escherichia coli 08-2712TC1 transconjugant expressing IncI1 plasmid-encoded beta lactamase CTX-M-1 by Etest
Escherichia coli [15] = test: Antimicrobial activity against Escherichia coli 05-9280TC1 transconjugant expressing IncI1 plasmid-encoded beta lactamase CTX-M-1 by Etest; type: functional
Salmonella typhimurium [16] = test: Antimicrobial activity against Salmonella Typhimurium 05-9280 by Etest; type: functional, Salmonella enterica subsp. enterica serovar Typhimurium; details: Salmonella enterica
Escherichia coli [17] = test: Antimicrobial activity against Escherichia coli 03-8748TC1 transconjugant expressing IncI1 plasmid-encoded beta lactamase CTX-M-1 by Etest; type: functional
Salmonella = test: Antimicrobial activity against Salmonella Llandoff 06CEB6542SAL by Etest; type: functional

Row | SMILES | MIC (Escherichia coli [1]) | MIC (Escherichia coli [2]) | MIC (Salmonella typhimurium [3]) | MIC [4] | MIC (Escherichia coli [5]) | MIC (Salmonella typhimurium [6]) | MIC (Escherichia coli [7]) | MIC (Salmonella typhimurium [8]) | MIC [9] | MIC (Escherichia coli [10]) | MIC [11] | MIC (Salmonella typhimurium [12]) | MIC (Salmonella typhimurium [13]) | MIC (Escherichia coli [14]) | MIC (Escherichia coli [15]) | MIC (Salmonella typhimurium [16]) | MIC (Escherichia coli [17]) | MIC (Salmonella)
1 | CC(C)(O/N=C(\C(=O)N[C@@H]1C(=O)N2C(C(=O)[O-])=C(C[n+]3ccccc3)CS[C@H]12)c1csc(N)n1)C(=O)O [CEFTAZIDIME] | 256 µg/mL (≈ 468 µM) | 256 µg/mL (≈ 468 µM) | 256 µg/mL (≈ 468 µM) | > 256 µg/mL | 128 µg/mL (≈ 234 µM) | 256 µg/mL (≈ 468 µM) | 8 µg/mL | 256 µg/mL (≈ 468 µM) | 256 µg/mL (≈ 468 µM) | 64 µg/mL (≈ 117 µM) | > 256 µg/mL | > 256 µg/mL | > 256 µg/mL | 64 µg/mL (≈ 117 µM) | > 256 µg/mL | > 256 µg/mL | 256 µg/mL (≈ 468 µM) | 64 µg/mL (≈ 117 µM)
2 | CO/N=C(\C(=O)N[C@@H]1C(=O)N2C(C(=O)O)=C(CSc3nc(=O)c(O)nn3C)CS[C@H]12)c1csc(N)n1 [CEFTRIAXONE] | 8 µg/mL (≈ 14.4 µM) | 4 µg/mL (≈ 7.21 µM) | 16 µg/mL (≈ 28.9 µM) | 8 µg/mL (≈ 14.4 µM) | 8 µg/mL (≈ 14.4 µM) | 8 µg/mL (≈ 14.4 µM) | 0.5 µg/mL | 16 µg/mL (≈ 28.9 µM) | 16 µg/mL (≈ 28.9 µM) | 4 µg/mL (≈ 7.21 µM) | 8 µg/mL (≈ 14.4 µM) | 64 µg/mL (≈ 115 µM) | 16 µg/mL (≈ 28.9 µM) | 8 µg/mL (≈ 14.4 µM) | 32 µg/mL (≈ 57.7 µM) | 32 µg/mL (≈ 57.7 µM) | 2 µg/mL (≈ 3.61 µM) | 4 µg/mL (≈ 7.21 µM)

Source: ChEMBL document CHEMBL1671724, “IncI1 plasmid carrying extended-spectrum-beta-lactamase gene blaCTX-M-1 in Salmonella enterica isolates from poultry and humans in France, 2003 to 2008” (2010)
